Results on 30 compounds are retold here after US20190241569A1, “3-(ARYL OR HETEROARYL) METHYLENEINDOLIN-2-ONE DERIVATIVES AS INHIBITORS OF CANCER STEM CELL PATHWAY KINASES FOR THE TREATMENT OF CANCER” (Boston Biomedical, Inc., priority 2013, published 2019).

SMILES strings stand for the structures. Structures can show the parent of a compound that is named as a salt.

One test deals with T1, human RIOK2 protein (Homo sapiens, UniProt Q9BVS4).
T1 construct: glutathione S-transferase is fused to N-terminal of a full-length human RIOK2 protein; GST (glutathione S-transferase) (N); purchased CarnaBio, Inc; host or cells: baculovirus-Sf21 cell expression system
Briefly: RIOK2 autophosphorylation ELISA (Test Example 4). The format is biochemical. The conditions noted are these: for inhibition at 1 µM: read-out: Inhibitory activity at 1 μM (%); for inhibition at 10 µM: read-out: Inhibitory activity at 10 μM (%). As to the method:
A protein in which glutathione S-transferase is fused to N-terminal of a full-length human RIOK2 protein was used as a recombinant human RIOK2 protein. The protein was prepared using a baculovirus-Sf21 cell expression system from CarnaBio, Inc. A kinase reaction solution was prepared by mixing 25 μg/mL of the recombinant human RIOK2 protein and 100 μM of ATP in 20 μl of kinase reaction buffer (50 mM Tris-HCl, 10 mM MgCl2, 10 mM MnCl2, 1 mM DTT, 0.01% Brij, 1× PhosSTOP (manufactured by Roche Applied Science)), and was incubated at a temperature of 30° C. for 1 hour. After adding 30 μl of 40 mM EDTA solution to this kinase reaction solution, the kinase reaction solution was transferred to a MaxiSorp 96 well plate (manufactured by Nunc). Thereafter, phosphorylated human RIOK2 protein was allowed to adsorb onto the wells by leaving the plate in a refrigerator overnight.
The following day, the supernatant was removed, and the wells were washed three times with ELISA buffer (20 mM Tris-HCl, 150 mM NaCl, 0.2% Tween-20, 0.1% BSA). Thereafter, 100 μl of Blocking-One P (product name; manufactured by Nacalai Tesque, Inc.) was applied to the wells, and a blocking treatment was performed for 1 hour at room temperature. […] After further washing the wells, a secondary antibody, anti-rabbit IgG conjugated with horseradish peroxidase (manufactured by Jackson ImmunoResearch; 1/4000 ELISA buffer-diluted solution), was applied to the wells, and incubation was performed for 30 minutes at room temperature. After washing the wells once again, 50 μl of tetramethyl benzidine (TMB) aqueous solution (manufactured by Nacalai Tesque, Inc.) was applied to the wells, and a coloring reaction was performed for 30 minutes at room temperature. Thereafter, the coloring reaction was stopped by adding 50 μl of 2M H2SO4 to the wells. An absorptiometric level of 450 nm was measured in each well using ARVO SX (manufactured by Wallac).

In another test the test system is A549. The experiment in a line: Bulk cancer cells, Cell Titer-Glo 72 hours (Test Example 2). It counts as cell-based. Conditions: Homo sapiens. The protocol: (§1) Tubes of 3× drug (60 uM in 500 uL complete media) were prepared from 5 mM stock solutions in DMSO. […] To treat cells, 50 uL of drug from the dilution plate was removed and added to the cell plates. […] Cells were harvested 72 hours after drug addition using Cell Titer-Glo (Promega) and luminescence measured on a plate reader.

The subject of another test is ACHN. Described as above. It counts as cell-based. Conditions: Homo sapiens, ACHN, 72 h. The protocol: as §1
A further test has as its system FaDu. Described as above. It counts as cell-based. The conditions noted are these: Homo sapiens. The protocol: as §1
In a further test the test system is FaDu CSC. Briefly: Cancer stem cells, Cell Titer-Glo 72 hours (Test Example 3). The format is cell-based. The conditions noted are these: Homo sapiens, FaDu, 72 h.
The next test relates to A549 CSC. The test is described as above. It counts as cell-based. Conditions: Homo sapiens.
A further test concerns ACHN CSC. Described as above. It counts as cell-based. Conditions: Homo sapiens, ACHN, 72 h.

T1 sequence (Q9BVS4 whole entry, the tested form may be a part): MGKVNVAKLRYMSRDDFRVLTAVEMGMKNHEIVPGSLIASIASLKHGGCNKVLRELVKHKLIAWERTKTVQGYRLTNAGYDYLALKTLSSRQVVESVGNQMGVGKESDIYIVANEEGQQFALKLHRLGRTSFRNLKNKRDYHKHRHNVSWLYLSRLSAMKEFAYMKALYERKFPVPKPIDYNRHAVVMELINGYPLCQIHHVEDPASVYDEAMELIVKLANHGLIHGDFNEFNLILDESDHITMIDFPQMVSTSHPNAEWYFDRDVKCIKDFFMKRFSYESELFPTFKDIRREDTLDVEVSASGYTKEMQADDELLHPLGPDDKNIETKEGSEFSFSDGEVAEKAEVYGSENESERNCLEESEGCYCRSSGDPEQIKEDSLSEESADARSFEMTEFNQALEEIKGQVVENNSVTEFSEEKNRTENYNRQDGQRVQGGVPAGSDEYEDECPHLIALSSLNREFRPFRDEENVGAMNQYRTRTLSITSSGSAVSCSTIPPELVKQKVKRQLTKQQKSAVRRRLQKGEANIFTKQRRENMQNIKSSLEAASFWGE

Regarding `CCN(CC)CCNC(=O)c1c(C)[nH]c(/C=C2\C(=O)Nc3ccc(-c4ccnn4-c4ccc(F)cc4)cc32)c1C` [Example 57], at human RIOK2 protein, the inhibition at 1 µM came out at 39% and the inhibition at 10 µM is 104%.

As to `CCN(CC)CCNC(=O)c1c(C)[nH]c(/C=C2\C(=O)Nc3ccc(-c4ccnn4-c4ccccc4F)cc32)c1C` [Example 58], at human RIOK2 protein, the inhibition at 1 µM is 56% and the inhibition at 10 µM amounted to 116%.

Consider `CCN(CC)CCNC(=O)c1c(C)[nH]c(/C=C2\C(=O)Nc3ccc(-c4ccnn4-c4ccc(OC)cc4)cc32)c1C` [Example 59], for which, on human RIOK2 protein, the inhibition at 1 µM came out at 34% and the inhibition at 10 µM is 106%.

Regarding `CCN(CC)CCNC(=O)c1c(C)[nH]c(/C=C2\C(=O)Nc3ccc(-c4ccnn4-c4ccc(C(F)(F)F)cc4)cc32)c1C` [Example 60], at human RIOK2 protein, the inhibition at 1 µM stood at 9% and the inhibition at 10 µM is 68%.

On to `CCN(CC)CCNC(=O)c1c(C)[nH]c(/C=C2\C(=O)Nc3ccc(-c4ccnn4-c4cccc(C)c4)cc32)c1C` [Example 61], for which, on human RIOK2 protein, the inhibition at 1 µM was found to be 29% and the inhibition at 10 µM worked out at 137%.

As for `CCN(CC)CCNC(=O)c1c(C)[nH]c(/C=C2\C(=O)Nc3ccc(-c4ccnn4-c4cccc(OC)c4)cc32)c1C` [Example 62], at human RIOK2 protein, the inhibition at 1 µM is 51% and the inhibition at 10 µM was found to be 98%.

Regarding `CCN(CC)CCNC(=O)c1c(C)[nH]c(/C=C2\C(=O)Nc3ccc(-c4ccnn4-c4ccccn4)cc32)c1C` [Example 63], on human RIOK2 protein, the inhibition at 1 µM was 14% and the inhibition at 10 µM worked out at 93%.

On to `CCN(CC)CCNC(=O)c1c(C)[nH]c(/C=C2\C(=O)Nc3ccc(-c4ccnn4-c4ccc(Cl)c(Cl)c4)cc32)c1C` [Example 65], for which, at human RIOK2 protein, the inhibition at 1 µM turned out to be 18% and the inhibition at 10 µM was determined as 87%.

Regarding `CCN(CC)CCNC(=O)c1c(C)[nH]c(/C=C2\C(=O)Nc3ccc(-c4ccnn4-c4ccncc4)cc32)c1C` [Example 66], on human RIOK2 protein, the inhibition at 1 µM is -6% and the inhibition at 10 µM came out at 44%.

Regarding `CCN(CC)CCNC(=O)c1c(C)[nH]c(/C=C2\C(=O)Nc3ccc(-c4cnn(-c5cnccn5)c4)cc32)c1C` [Example 68], on human RIOK2 protein, the inhibition at 1 µM turned out to be 47% and the inhibition at 10 µM is 95%.

On to `CCN(CC)CCNC(=O)c1c(C)[nH]c(/C=C2\C(=O)Nc3ccc(-c4cnn(-c5ccncn5)c4)cc32)c1C` [Example 69], for which, at human RIOK2 protein, the inhibition at 1 µM turned out to be 40% and the inhibition at 10 µM came out at 109%.

For the compound `CCN(CC)CCNC(=O)c1c(C)[nH]c(/C=C2\C(=O)Nc3ccc(-c4cnn(-c5ncccn5)c4)cc32)c1C` [Example 70], on human RIOK2 protein, the inhibition at 1 µM amounted to 42% and the inhibition at 10 µM came out at 112%.

For `CCN(CC)CCNC(=O)c1c(C)[nH]c(/C=C2\C(=O)Nc3ccc(-c4cnn(-c5ccccc5Cl)c4)cc32)c1C` [Example 71], at human RIOK2 protein, the inhibition at 1 µM was determined as 4% and the inhibition at 10 µM turned out to be 99%.

On to `CCN(CC)CCNC(=O)c1c(C)[nH]c(/C=C2\C(=O)Nc3ccc(-c4cnn(-c5cscn5)c4)cc32)c1C` [Example 72], for which, at human RIOK2 protein, the inhibition at 1 µM amounted to 41% and the inhibition at 10 µM came out at 99%.

For the compound `CCN(CC)CCNC(=O)c1c(C)[nH]c(/C=C2\C(=O)Nc3ccc(-c4cnn(-c5nccs5)c4)cc32)c1C` [Example 73], at human RIOK2 protein, the inhibition at 1 µM is 18% and the inhibition at 10 µM worked out at 111%.

For `CCN(CC)CCNC(=O)c1c(C)[nH]c(/C=C2\C(=O)Nc3ccc(-c4cnn(-c5ccc(S(N)(=O)=O)cc5)c4)cc32)c1C` [Example 74], at human RIOK2 protein, the inhibition at 1 µM stood at 26% and the inhibition at 10 µM amounted to 71%.

On to `CCN(CC)CCNC(=O)c1c(C)[nH]c(/C=C2\C(=O)Nc3ccc(-c4cnn(-c5cccnc5)c4)cc32)c1C` [Example 79], for which, on human RIOK2 protein, the inhibition at 1 µM was found to be 42% and the inhibition at 10 µM was 82%.

As for `Cc1[nH]c(/C=C2\C(=O)Nc3ccc(-c4cnn(-c5ccccc5)c4)cc32)c(C)c1C(=O)N[C@H]1CCCNC1` [Example 88, (S,Z)-2,4-dimethyl-5-((2-oxo-5-(1-phenyl-1H-pyrazol-4-yl)indolin-3-ylidene)methyl)-N-(piperidin-3-yl)-1H-pyrrole-3-carboxamide hydrochloride], on human RIOK2 protein, the inhibition at 1 µM worked out at 1.4% and the inhibition at 10 µM stood at 122%.

Regarding `Cc1[nH]c(/C=C2\C(=O)Nc3ccc(-c4cnn(-c5ccccc5)c4)cc32)c(C)c1C(=O)N[C@@H]1CCCNC1` [Example 89], at human RIOK2 protein, the inhibition at 1 µM came to 22% and the inhibition at 10 µM turned out to be 130%.

In the case of `CCN(CC)CCCNC(=O)c1c(C)[nH]c(/C=C2\C(=O)Nc3ccc(-c4cnn(-c5ccccc5)c4)cc32)c1C` [Example 90], on human RIOK2 protein, the inhibition at 1 µM stood at 20% and the inhibition at 10 µM is 96%.

In the case of `CCOCCCNC(=O)c1c(C)[nH]c(/C=C2\C(=O)Nc3ccc(-c4cnn(-c5ccccc5)c4)cc32)c1C` [Example 91], at human RIOK2 protein, the inhibition at 1 µM was -7% and the inhibition at 10 µM is 43%.

Usually IC50 stands for the concentration that gives 50% inhibition. The low end stands for greater potency in that assay, the high end for weaker potency in that assay. For the compound `CCN(CC)CCNC(=O)c1c(C)[nH]c(/C=C2\C(=O)Nc3cc(-c4csc(-n5cccn5)n4)ccc32)c1C` [Example 254], the IC50 with A549 was found to be 5.8 µM; with ACHN it was 2.6 µM; in the test on FaDu, 5.3 µM; in the test on FaDu CSC, 0.78 µM; in the test on A549 CSC it was 2.93 µM; in the test on ACHN CSC, 0.17 µM.

Regarding `CCN(CC)CCNC(=O)c1c(C)[nH]c(/C=C2\C(=O)Nc3cc(-c4cccc5ncccc45)ccc32)c1C` [Example 258], the IC50 worked out at 2.88 µM in the test on A549; 2.66 µM in the test on ACHN; 4.83 µM in the test on FaDu; 2.64 µM in the test with FaDu CSC; 8.61 µM in the test on A549 CSC; 0.42 µM in the test on ACHN CSC.

For `Cc1cc(C)c(/C=C2\C(=O)Nc3ccc(-c4ccc(O)cc4C)cc32)[nH]1` [Example 261], the IC50 stood at 12.5 µM in the test on A549; 14.9 µM in the test on ACHN; 14.7 µM with FaDu; 14.4 µM in the test on FaDu CSC; 36.8 µM with A549 CSC; 21.1 µM with ACHN CSC.

For `CCN(CC)CCNC(=O)c1c(C)[nH]c(/C=C2\C(=O)Nc3cc(-c4ccc(C(=O)c5ccccc5)cc4)ccc32)c1C` [Example 264], the half-maximal inhibitory concentration (IC50) with A549 was 3.65 µM; in the test with ACHN, 4.11 µM; in the test with FaDu, 4.46 µM; with FaDu CSC it was 1.46 µM; in the test on A549 CSC, 3.16 µM; in the test on ACHN CSC it was 1.63 µM.

Turning to `CCN(CC)CCNC(=O)c1c(C)[nH]c(/C=C2\C(=O)Nc3cc(-c4ccc(O)cc4C)ccc32)c1C` [Example 265], the half-maximal inhibitory concentration (IC50) was 2.76 µM in the test with A549; 2.53 µM with ACHN; 2.14 µM in the test with FaDu; 1.54 µM in the test with FaDu CSC; 7.55 µM with A549 CSC; 2.17 µM with ACHN CSC.

On to `CCN(CC)CCNC(=O)c1c(C)[nH]c(/C=C2\C(=O)Nc3ccc(-c4ccc(C=O)cc4)cc32)c1C` [Example 266], for which the IC50 came out at 10.6 µM in the test with A549; 2.81 µM with ACHN; 12.1 µM in the test on FaDu; 7.51 µM with FaDu CSC; 5.84 µM with A549 CSC; 4.34 µM in the test on ACHN CSC.

With `CCN(CC)CCNC(=O)c1c(C)[nH]c(/C=C2\C(=O)Nc3ccc(-c4ccc(OC)cc4C)cc32)c1C` [Example 267], the IC50 was found to be 1.74 µM with A549; 2.26 µM with ACHN; 2.31 µM in the test on FaDu; 1.4 µM with FaDu CSC; 4.61 µM in the test on A549 CSC; 1.42 µM in the test on ACHN CSC.

Regarding `CCN(CC)CCNC(=O)c1c(C)[nH]c(/C=C2\C(=O)Nc3ccc(-c4ccc(C#N)c(F)c4)cc32)c1C` [Example 269], the IC50 came out at 14.5 µM in the test with A549; 13.3 µM in the test on ACHN; 14 µM with FaDu; 3.48 µM in the test with FaDu CSC; 12 µM in the test with A549 CSC; 1.71 µM with ACHN CSC.

On to `CCN(CC)CCNC(=O)c1c(C)[nH]c(/C=C2\C(=O)Nc3ccc(-c4ccc5c(c4)CC(=O)N5)cc32)c1C` [Example 270], for which the IC50 with A549 was determined as 19.7 µM; with ACHN, 18.9 µM; in the test with FaDu it was 25.4 µM; in the test on FaDu CSC, 15.5 µM; with A549 CSC it was 29.2 µM; with ACHN CSC, 20.8 µM.
